This is an account of results in US11246929B2, “Combination of a protein kinase inhibitor and an additional chemotherapeutic agent” (Merck Patent GmbH, priority 2016, dated 2022).

In general, GI50 refers to the concentration giving 50% growth inhibition.

The test system of test [1] is NCI-H460 (lung, large cell) xenograft. The experiment in a line: Xenograft, fractionated IR plus Compound 1, time to TV400%. Format: in vivo, mouse. As to the method: (§1) The therapeutic relevance of DNA-PK inhibition by Compound 1 was investigated in vivo in combination with ionizing radiation (IR), a clinically established DSB-inducing treatment. Compound 1 was tested for activity in six xenograft mouse models of human cancer. The models were chosen from different cancer indications (colon, lung, head and neck, pancreatic), and histological subtypes (adeno, squamous, large cell). Ionizing radiation was administered using a fractionated schedule of 2 Gy per day administered over five consecutive days (total radiation dose=10 Gy). Compound 1 was given orally 10 min prior to each fraction of radiation (ONC397-1-2AZ, ONC397-1-3AZ, ONC397-1-4AZ, ONC397-1-5AZ, ONC397-1-8AZ).
(§2) Radiotherapy enhancing effect of Compound 1 was quantified across the tested models by the time to reaching 400% initial volume for the 150 mg/kg study arms. The resulting Kaplan-Meier plots were compared by the log-rank test.

Test [2] deals with BxPC3 (pancreas, adeno) xenograft. Described as above. It counts as in vivo, mouse. Here is the method: as §1, §2
For test [3], the system named is A549 (lung, adeno) xenograft. Described as above. It counts as in vivo, mouse. As to the method:
as §1, §2

The next test concerns PC3. The experiment in a line: SRB growth inhibition, 93 cell lines panel. Format: cell-based. The conditions noted are these: Homo sapiens, PC-3; PC3, prostate; read-out: GI50 of etoposide (±Compound 1). As to the method:
(§3) 90 μl of cells, after a 48-hour pre-growth period, were treated by mixing with 10 μl of the compound-containing media (resulting in a final DMSO concentration of 0.1%).
(§4) This is the drug concentration causing a 50% reduction compared to the net protein increase in control cells during the drug incubation period. In other words, G150 is IC50 corrected for time zero. […] TGI was calculated from Ti=Tz. […] It was calculated as 100×[(Ti−Tz)/Tz]=−50.

Another test relates to A204. The experiment in a line: SRB growth inhibition, 93 cell lines panel. It counts as cell-based. The conditions noted are these: Homo sapiens; A204, muscle; read-out: GI50 of etoposide (±Compound 1). As to the method: as §3, §4
In another test the test system is 15M15C3. The experiment in a line: SRB growth inhibition, 93 cell lines panel. Format: cell-based. The conditions noted are these: 15M15C3, bladder; read-out: GI50 of etoposide (±Compound 1). As to the method: as §3, §4
A further test concerns IGROV1. The experiment in a line: SRB growth inhibition, 93 cell lines panel. The conditions noted are these: Homo sapiens, IGROV-1; IGROV1, ovary; read-out: GI50 of etoposide (±Compound 1). It counts as cell-based. As to the method: as §3, §4
The next test concerns RAMOS. As to the kind of experiment: SRB growth inhibition, 93 cell lines panel. Format: cell-based. To be noted: Homo sapiens, hematological, read-out: GI50 of etoposide (±Compound 1). Here is the method:
as §3, §4

For another test, the system named is JEG3. As to the kind of experiment: SRB growth inhibition, 93 cell lines panel. Format: cell-based. To be noted: Homo sapiens, JEG-3; JEG3, placenta; read-out: GI50 of etoposide (±Compound 1). As to the method:
as §3, §4

The next test deals with HCT116. The experiment in a line: SRB growth inhibition, 93 cell lines panel. It counts as cell-based. To be noted: Homo sapiens, HCT-116; HCT116, colon; read-out: GI50 of etoposide (±Compound 1). Here is the method: as §3, §4
A further test has as its system JAR. The experiment in a line: SRB growth inhibition, 93 cell lines panel. To be noted: placenta, read-out: GI50 of etoposide (±Compound 1). Format: cell-based. Here is the method:
as §3, §4

Another test concerns MV4-11. As to the kind of experiment: SRB growth inhibition, 93 cell lines panel. Format: cell-based. To be noted: Homo sapiens; MV4-11, hematological; read-out: GI50 of etoposide (±Compound 1). Here is the method: as §3, §4
The subject of the next test is EFO21. The experiment in a line: SRB growth inhibition, 93 cell lines panel. Format: cell-based. To be noted: Homo sapiens, EFO-21; EFO21, ovary; read-out: GI50 of etoposide (±Compound 1). Here is the method: as §3, §4
For another test, the system named is BXPC3. The experiment in a line: SRB growth inhibition, 93 cell lines panel. It counts as cell-based. The conditions noted are these: Homo sapiens, BXPC-3; BXPC3, pancreas; read-out: GI50 of etoposide (±Compound 1). Here is the method: as §3, §4
The subject of another test is COLO205. The experiment in a line: SRB growth inhibition, 93 cell lines panel. To be noted: Homo sapiens, COLO 205; COLO205, colon; read-out: GI50 of etoposide (±Compound 1). It counts as cell-based. Here is the method:
as §3, §4

For the next test, the system named is RD. As to the kind of experiment: SRB growth inhibition, 93 cell lines panel. It counts as cell-based. The conditions noted are these: Homo sapiens, muscle, read-out: GI50 of etoposide (±Compound 1). As to the method:
as §3, §4

Another test deals with PBMC. The experiment in a line: SRB growth inhibition, 93 cell lines panel. It counts as cell-based. To be noted: hematological, read-out: GI50 of etoposide (±Compound 1). Here is the method: as §3, §4
The next test deals with MDAMB436. The experiment in a line: SRB growth inhibition, 93 cell lines panel. To be noted: Homo sapiens, MDA-MB-436; MDAMB436, breast; read-out: GI50 of etoposide (±Compound 1). Format: cell-based. As to the method: as §3, §4
The next test deals with SKBR3. The experiment in a line: SRB growth inhibition, 93 cell lines panel. To be noted: Homo sapiens, SK-BR-3; SKBR3, breast; read-out: GI50 of etoposide (±Compound 1). It counts as cell-based. As to the method: as §3, §4
In a further test the test system is A549. As to the kind of experiment: SRB growth inhibition, 93 cell lines panel. Format: cell-based. To be noted: Homo sapiens; A549, lung; read-out: GI50 of etoposide (±Compound 1). Here is the method: as §3, §4
The next test has as its system A375. As to the kind of experiment: SRB growth inhibition, 93 cell lines panel. Format: cell-based. The conditions noted are these: Homo sapiens, A-375; A375, skin; read-out: GI50 of etoposide (±Compound 1). As to the method: as §3, §4
A further test relates to MG63. As to the kind of experiment: SRB growth inhibition, 93 cell lines panel. It counts as cell-based. To be noted: Homo sapiens, MG-63; MG63, bone; read-out: GI50 of etoposide (±Compound 1). As to the method: as §3, §4
The subject of a further test is SKOV3. The experiment in a line: SRB growth inhibition, 93 cell lines panel. It counts as cell-based. The conditions noted are these: Homo sapiens, SK-OV-3; SKOV3, ovary; read-out: GI50 of etoposide (±Compound 1). As to the method: as §3, §4
The next test relates to SKLMS1. As to the kind of experiment: SRB growth inhibition, 93 cell lines panel. The conditions noted are these: Homo sapiens, SK-LMS-1; SKLMS1, uterus; read-out: GI50 of etoposide (±Compound 1). It counts as cell-based. As to the method: as §3, §4
Another test concerns LOVO. The experiment in a line: SRB growth inhibition, 93 cell lines panel. Format: cell-based. To be noted: Homo sapiens, colon, read-out: GI50 of etoposide (±Compound 1). Here is the method: as §3, §4
Another test concerns MDAMB468. As to the kind of experiment: SRB growth inhibition, 93 cell lines panel. Format: cell-based. To be noted: Homo sapiens, MDA-MB-468; MDAMB468, breast; read-out: GI50 of etoposide (±Compound 1). Here is the method: as §3, §4
For another test, the system named is OVCAR3. The experiment in a line: SRB growth inhibition, 93 cell lines panel. To be noted: Homo sapiens, OVCAR-3; OVCAR3, ovary; read-out: GI50 of etoposide (±Compound 1). It counts as cell-based. Here is the method: as §3, §4
Setting [4] is: IR 10 Gy (5 x 2 Gy) + Compound 1 150 mg/kg po.
Setting [5] is: IR 10 Gy (5 x 2 Gy) + Compound 1 150 mg/kg po 10 min prior to each fraction.

Regarding `COc1ccc([C@@H](O)c2cc(-c3ncnc4cc(N5CCOCC5)ccc34)c(F)cc2Cl)nn1` [Compound 1, (S)-[2-chloro-4-fluoro-5-(7-morpholin-4-yl-quinazolin-4-yl)-phenyl]-(6-methoxy-pyridazin-3-yl)-methanol], the “Enhancement Ratio [combi/IR only]” value was 2.6 in test [1] (setting [4]), 2 in test [2] (setting [4]) and 1.5 in test [3] (setting [4]). In addition, the “median time to TV400% Combi” value is on record as 45 days in test [1] (setting [5]), 73.5 days in [2] (setting [5]) and 42 days in test [3] (setting [5]).

For the compound `COc1cc([C@@H]2c3cc4c(cc3[C@@H](O[C@@H]3O[C@@H]5CO[C@@H](C)O[C@H]5[C@H](O)[C@H]3O)[C@H]3COC(=O)[C@H]23)OCO4)cc(OC)c1O` [Etoposide], the 50% growth inhibitory concentration (GI50) worked out at 5.24 µM in the test on PC3; 0.286 µM in the test with A204; 0.604 µM in the test on 15M15C3; 1.06 µM with IGROV1; 0.204 µM with RAMOS; 0.041 µM with JEG3. Besides, the GI50 with HCT116 is 0.77 µM; in the test on JAR, 0.116 µM; with MV4-11 it was 0.038 µM; in the test on EFO21, 8.22 µM; with BXPC3 it was 7.14 µM; in the test with COLO205 it was 1.05 µM. For the same compound, the 50% growth inhibitory concentration (GI50) with RD was more than 10 µM; in the test with PBMC, more than 10 µM; with MDAMB436, 0.378 µM; with SKBR3, 0.432 µM; in the test with A549, 0.39 µM; in the test with A375, 0.378 µM. Besides, the GI50 came to 1.02 µM with MG63; 2.99 µM with SKOV3; 1.64 µM in the test with SKLMS1; 0.606 µM in the test with LOVO; 1.17 µM in the test with MDAMB468; 2.54 µM in the test on OVCAR3.
